According to patent US6514959B2 (priority 1994, dated 2003):

System: Plasmopara viticola
Assay: Action against Plasmopara viticola on vines (preventive leaf spray, Colby evaluation)
Assay type: in vivo
Details: for O Observed action: evaluation after 7 days
Source text: Fungicides have a synergistic effect whenever the fungicidal action of the active ingredient combination is greater than the sum of the actions of the active ingredients when applied individually.
The action E to be expected for a given active ingredient combination, for example of two fungicides, obeys the so-called COLBY formula and can be calculated as follows (COLBY, L. R. “Calculating synergistic and antagonistic responses of herbicide combinations”. Weeds 15, pages 20-22, 1967) (LIMPEL et al., […] “Weeds control by . . . certain combinations”. Proc. NEWCL, Vol. 16, pp. 48-53):
(mg a.i./liter=milligrams of active ingredient per liter or a multiple thereof) X=% action by fungicide I at p mg a.i./liter
Y=% action by fungicide II at q mg a.i./liter
E=the expected action of fungicides I+II at a rate of application of p+q mg a.i./liter (additive action), then according to Colby: [formula]
If the action (O) actually observed is greater than the expected action, then the action of the combination is superadditive, i.e. there is a synergistic effect.
1) Action Against Plasmopara viticola on Vines
Small vine plants of the variety “Gutedel” are each grown in a plant-pot (diameter=6 cm) under greenhouse conditions and are sprayed in the two-leaf stage with an active ingredient mixture prepared from an emulsifiable concentrate. The following concentrations of active ingredient are each applied to four plants: […]
metalaxyl racemate: 2 mg and 6 mg a.i./liter;
R-metalaxyl (100%): 0.06 mg and 0.6 mg a.i./liter; mancozeb: 2 mg and 6 mg a.i./liter.
These dilutions are prepared in demineralised water immediately before the leaves are sprayed. In order to eliminate the effect of the gas phase of the metalaxyl in the vicinity, all the plants are separated from one another laterally by means of transparent plastics films and are kept in the dark for one day at 20-22° C. and about 100% relative humidity.
The entire surface of the leaves of the plants is then uniformly sprayed to drip point with a freshly prepared sporangia suspension (120 000/ml) of a strain of Plasmopara viticola that is sensitive to metalaxyl. The plants are then kept at 20-22° C. and about 100% relative humidity for 7 days under artificial daylight of 16 hours' duration. Evaluation of the infestation is then carried out. The Tables show in each case the average of four parallel sprayings. The expected action in the case of mixtures is calculated according to COLBY.
Level of action of racemic metalaxyl and R-metalaxyl in admixture with residual component mancozeb

[1] = single active ingredient 2 mg a.i./l, vines Gutedel, infection 1 day after spraying, average of four
[2] = single active ingredient 6 mg a.i./l, vines

COCC(=O)N(c1c(C)cccc1C)[C@H](C)C(=O)OC (single isomer, unassigned) [R-enantiomer of metalaxyl, R-metalaxyl]
improvement of action when the R-enantiomer is used instead of racemic metalaxyl (in admixture with 2 mg or 6 mg of mancozeb, 0.06 mg R-metalaxyl corresponds to 2 mg racemic metalaxyl): about 30 fold
O Observed action (single active ingredient 0.06 mg a.i./l, vines): 12%
O Observed action (single active ingredient 0.6 mg a.i./l, vines): 18%

COCC(=O)N(c1c(C)cccc1C)C(C)C(=O)OC (stereo not shown) [Metalaxyl, metalaxyl]
O Observed action [1]: 12%
O Observed action [2]: 24%

mancozeb
O Observed action [1]: 0%
O Observed action [2]: 20%
